Assay results: publication PMC7785802, “Therapeutic Efficacy of a Trichinella Spiralis Paramyosin-Derived Peptide Modified With a Membrane-Targeting Signal in Mice With Antigen-Induced Arthritis” (Frontiers in Microbiology, 2020)

What was measured:
[1] = test system: mice with antigen-induced arthritis (AIA); experiment: Knee joint swelling in antigen-induced arthritis (AIA); assay type: in vivo, mouse; conditions: 40 μg peptide + 25 μg mBSA in 10 μl PBS intraarticular; days 2, 3 and 4 after induction; n = 6; **p < 0.01
Procedure: AIA was induced in male C57BL/6J wildtype mice (8–10 weeks of age) according to a previously described protocol (Ebbinghaus et al., [2017]) with minor modifications. Briefly, the mice were intraperitoneally injected with 200 ng pertussis toxin (List Biological Laboratories, California, USA) prior to being subcutaneously immunized with 100 μg methylated bovine serum albumin (mBSA; Sigma-Aldrich, St. Louis, Missouri, USA) emulsified in Freund's complete adjuvant (Sigma-Aldrich). The immune response was boosted with identical subcutaneous mBSA immunizations at 14 and 21 days after the first immunization. At 28 days after the initial immunization, the right knee joint of each mouse was intraarticularly injected with 10 μl PBS as the control, while the left knee joint received either 10 μl PBS only (normal group), 25 μg mBSA (to induce AIA) in 10 μl PBS (AIA-only group), 40 μg modified peptide with 25 μg mBSA in 10 μl PBS (modified peptide+AIA group), or 40 μg original peptide with 25 μg mBSA in 10 μl PBS (original peptide+AIA group). Every day after AIA induction (and intraarticular peptide treatment), the difference in the joint diameter (swelling in mm) between the right and left knee joints in each mouse was assessed using a digital micrometer to evaluate the AIA severity. Each joint was measured three times and the mean diameter was calculated and recorded. […]

C9 / MAC = conditions: previous study; ref Zhao et al., 2014; cited from earlier work
Text: Paramyosin, a dimeric fibrillar protein, not only forms the thick myofilaments of invertebrate muscle, but also occurs on the surface of helminths and serves as a potential modulator of the host immune system by interacting with human collagen, calgranulin and so on (Zhao et al., [2014]).

Row | Substance | joint swelling (left vs right knee diameter) compared to AIA-only mice [1] | inhibition of MAC assembly (C9 / MAC)
1 | Myr-GSSKSPSKKKKKKPG-ACP-VSMGKSLSSKVYVM [modified peptide, Ts-pmy-derived peptide modified with a membrane-targeting signal] | significant reductions in joint swelling on days 2, 3, and 4 after disease induction | –
2 | VSMGKSLSSKVYVM [original peptide, tetradecapeptide derived from Trichinella spiralis paramyosin (Ts-pmy)] | – | inhibited the assembly of MAC
